The values below come from patent publication US20240335452A1, “COMPOSITIONS AND METHODS OF COMBINATION THERAPY FOR TARGETING LYMPHOMA” (Cullgen (Shanghai), Inc., priority 2021, published 2024).

Entries after “also recorded” stand apart in the source; their conditions may differ.

Test [1] has as its system SU-DHL-10 cells. In words: Cell viability assay (CellTiter-Glo) in SU-DHL-10 cells. The format is cell-based, human. The following applies: for cell viability, response of the cells to the single agent: SU-DHL-10, single agent; for IC50: Homo sapiens, SU-DHL10, 120 h, SU-DHL-10 cells (EZH2-mutant DLBCL), in the presence of 1 μM EPZ-6438, 5 days; for cell viability of the combination versus the compound alone (FIG. 2A, 2C): SU-DHL-10, combination with any of CC-122, CC-220, or CC-92480 (so in the source). The procedure: (§1) Experiments were performed in cultured human cells to assess the efficacy of combined EZH2 inhibitor and immunomodulatory drug (e.g., an IMiD) treatment using an EZH2-mutant DLBCL cell line, SU-DHL-10, and an EZH2-wild type line, OCI-LY7. Cells were purchased from Nanjing Cobioer Biotechnology. SU-DHL-10 and OCI-LY7 cells were cultured at 37° C. with 5% CO2 in RPMI 1640 Medium supplemented with 10% fetal bovine serum. Cells were authenticated using the short tandem repeat (STR) assays. Mycoplasma test results were negative.
(§2) The cultured cells were seeded at a density of 5000 cells per well in 96-well assay plates and treated with test compounds at 10 μM followed by a 11-point 3-fold serial dilution or an 8-point 10-fold serial dilution. Cell viability was determined after 5 days, using the CellTiter-Glo assay kit (Promega) according to the manufacturer's instructions. The dose-response curves were determined and IC50 values were calculated using the GraphPad Prism software following a nonlinear regression (least squares fit) method. Each data point in the figure represents the mean values of at least two technical replicates ± standard deviation.
(§3) Cells were treated with EZH2 inhibitors in the presence of IMiDs at concentrations sufficient to induce degradation of IKZF1 and IKZF3 but not enough to kill cells. CC-122 and CC-220 were tested at a concentration of 1 μM; CC-92480 and CFT7455 were tested at a concentration of 1 nM; and CC-99282 was tested at a concentration of 10 nM.
Background: Cellular ATP, detected with luciferase, serves as a proxy for viable cell number.

Test [2] deals with OCI-LY7 cells. The experiment in a line: Cell viability assay (CellTiter-Glo) in OCI-LY7 cells. It is filed as cell-based, human. The following applies: for cell viability, response of the cells to the single agent: OCI-LY7, single agent, 5 days; for IC50: Homo sapiens, 120 h, OCI-LY7 cells (EZH2-wild type), in the presence of 1 μM EPZ-6438, 5 days; for cell viability of the combination versus the compound alone (FIG. 2B, 2D): OCI-LY7, combination with any of CC-122, CC-220, or CC-92480 (so in the source). As for the experimental part:
as §1, §2, §3

Setting [3] is: SU-DHL-10, in the presence of 1 nM CFT7455, 5 days.
Where [4] appears, read: SU-DHL-10, in the presence of 10 nM CC-99282, 5 days.
[5] abbreviates: OCI-LY7, in the presence of 1 nM CFT7455, 5 days.
Where [6] appears, read: OCI-LY7, in the presence of 10 nM CC-99282, 5 days.
Setting [7] is: SU-DHL-10, in the presence of 1 nM CC-92480, 5 days.
Where [8] appears, read: SU-DHL-10, in the presence of 1 μM CC-122, 5 days.
[9] abbreviates: SU-DHL-10, in the presence of 1 μM CC-220, 5 days.
Where [10] appears, read: OCI-LY7, in the presence of 1 nM CC-92480, 5 days.
Setting [11] is: OCI-LY7, in the presence of 1 μM CC-122, 5 days.
[12] abbreviates: OCI-LY7, in the presence of 1 μM CC-220, 5 days.
Setting [13] is: SU-DHL-10, in the presence of 1 μM CPI-1205, 5 days.
Setting [14] is: SU-DHL-10, in the presence of 1 μM EPZ-6438, 5 days.
Where [15] appears, read: SU-DHL-10, in the presence of 1 μM GSK126, 5 days.
The mark [16] stands for this setting: SU-DHL-10, in the presence of C24 (1 μM with CC-122, 2 μM with CC-220), 5 days.
Setting [17] is: OCI-LY7, in the presence of 1 μM C24, 5 days.
The mark [18] stands for this setting: OCI-LY7, in the presence of 1 μM CPI-1205, 5 days.
[19] abbreviates: OCI-LY7, in the presence of 1 μM EPZ-6438, 5 days.
The mark [20] stands for this setting: OCI-LY7, in the presence of 1 μM GSK126, 5 days.

Turning to `CCc1c(N(CC)C2CCOCC2)cc2oc(CN3CCCCC3)cc2c1C(=O)NCc1c(C)cc(C)[nH]c1=O` [SHR2554, N-((4,6-dimethyl-2-oxo-1,2-dihydropyridin-3-yl)methyl)-5-ethyl-6-(ethyl(tetrahydro-2H-pyran-4-yl)amino)-2-(piperidin-1-ylmethyl)benzofuran-4-carboxamide], the “cell viability (sensitivity of the cells to the compound in combination)” value in test [1] (setting [3]), in test [1] (setting [4]), in test [2] (setting [5]) and in test [2] (setting [6]) was “highly sensitive; also recorded: lowered cell viability more than treatment with SHR2554 alone” in each case. Moreover, the “cell viability, response of the cells to the single agent” value (“cell viability, response of the cells” below) is “modestly responsive” in test [1] (5 days) and “refractory” in test [2].
Consider `CC[C@H](C)n1cc(C)c2c(C(=O)NCc3c(C)cc(C)[nH]c3=O)cc(-c3ccc(N4CCNCC4)nc3)cc21` [GSK126, (S)-1-(sec-butyl)-N-((4,6-dimethyl-2-oxo-1,2-dihydropyridin-3-yl)methyl)-3-methyl-6-(6-(piperazin-1-yl)pyridin-3-yl)-1H-indole-4-carboxamide], for which the “cell viability (sensitivity of the cells to the compound in combination)” value in test [1] (setting [7]), in test [1] (setting [8]), in test [1] (setting [9]), in test [2] (setting [10]), in test [2] (setting [11]) and in test [2] (setting [12]) was “highly sensitive; also recorded: lowered cell viability more than treatment with GSK126 alone” each time.
Consider `COc1cc(C)[nH]c(=O)c1CNC(=O)c1c(C)n([C@H](C)C2CCN(CC(F)(F)F)CC2)c2ccccc12` [CPI-1205, lirametostat], for which the “cell viability (sensitivity of the cells to the compound in combination)” value in test [1] (setting [7]), in test [1] (setting [8]), in test [1] (setting [9]), in test [2] (setting [10]), in test [2] (setting [11]) and in test [2] (setting [12]) was “highly sensitive; also recorded: lowered cell viability more than treatment with CPI-1205 alone” each time.
Turning to `Cc1nc2cccc(N)c2c(=O)n1C1CCC(=O)NC1=O` (stereo not shown) [CC-122, avadomide], the half-inhibitory concentration (IC50) in test [1] worked out at 89 nM; in test [2] it was 380 nM. In test [1], the “cell viability of the combination versus the compound alone (FIG. 2A, 2C)” value was “lowered cell viability more than treatment with CC-122 alone”. Moreover, the “cell viability (sensitivity of the cells to the compound in combination)” value in test [1] (setting [13]), in test [1] (setting [14]), in test [1] (setting [15]), in test [1] (setting [16]), in test [2] (setting [17]) and in test [2] (setting [18]) was “highly sensitive” throughout. The “cell viability (sensitivity of the cells to the compound in combination)” value in test [2] (setting [19]) and in test [2] (setting [20]) was “highly sensitive” in each case. Also, the “cell viability, response of the cells” value in test [1] (5 days) was “refractory”; in test [2], “modestly responsive”. The “cell viability of the combination versus the compound alone (FIG. 2B, 2D)” value in test [2] is “lowered cell viability more than treatment with CC-122 alone”.
Regarding `O=C1CC[C@H](N2Cc3c(OCc4ccc(CN5CCOCC5)cc4)cccc3C2=O)C(=O)N1` [CC-220, iberdomide], the results for the half-maximal inhibitory concentration (IC50) in test [1] and in test [2] were 9.5 nM and 30 nM, respectively. The “cell viability of the combination versus the compound alone (FIG. 2A, 2C)” value in test [1] is reported as “lowered cell viability more than treatment with CC-220 alone”. Moreover, the “cell viability (sensitivity of the cells to the compound in combination)” value in test [1] (setting [13]), in test [1] (setting [14]), in test [1] (setting [15]), in test [1] (setting [16]), in test [2] (setting [17]) and in test [2] (setting [18]) was “highly sensitive” in each case. For the same compound, the “cell viability (sensitivity of the cells to the compound in combination)” value in test [2] (setting [19]) and in test [2] (setting [20]) was “highly sensitive” in each case. The “cell viability, response of the cells” value in test [1] (5 days) is listed as “refractory”; in test [2], “modestly responsive”. Further, the “cell viability of the combination versus the compound alone (FIG. 2B, 2D)” value in test [2] is “lowered cell viability more than treatment with CC-220 alone”.
As to `COC1CN(C2CCC([C@@]3(C)Oc4c(Cl)cc(C(=O)NCc5c(SC)cc(C)[nH]c5=O)c(C)c4O3)CC2)C1` (stereo partly drawn) [CPI-0209, (2R)-7-chloro-2-(4-(3-methoxyazetidin-1-yl)cyclohexyl)-2,4-dimethyl-N-((6-methyl-4-(methylthio)-2-oxo-1,2-dihydropyridin-3-yl)methyl)benzo[d][1,3]dioxole-5-carboxamide], the “cell viability (sensitivity of the cells to the compound in combination)” value in test [1] (setting [3]), in test [1] (setting [4]), in test [2] (setting [5]) and in test [2] (setting [6]) was “highly sensitive; also recorded: lowered cell viability more than treatment with CPI-0209 alone” each time. The “cell viability, response of the cells” value in test [1] (5 days) was “moderately responsive”; in test [2], “modestly responsive”.

For orientation: IC50 means the concentration needed to halve the response being measured.
